Test results published in ChEMBL document CHEMBL1135608, “Discovery of the first nonpeptide agonist of the GPR14/urotensin-II receptor: 3-(4-chlorophenyl)-3-(2- (dimethylamino)ethyl)isochroman-1-one (AC-7954)” (J Med Chem, 2002).

Tests used:
Urotensin-2 receptor [1] = biological target: T1, Urotensin-2 receptor (Homo sapiens, UniProt Q9UKP6); experiment: Potency against human Urotensin 2 receptor
T1 sequence (Q9UKP6 whole entry): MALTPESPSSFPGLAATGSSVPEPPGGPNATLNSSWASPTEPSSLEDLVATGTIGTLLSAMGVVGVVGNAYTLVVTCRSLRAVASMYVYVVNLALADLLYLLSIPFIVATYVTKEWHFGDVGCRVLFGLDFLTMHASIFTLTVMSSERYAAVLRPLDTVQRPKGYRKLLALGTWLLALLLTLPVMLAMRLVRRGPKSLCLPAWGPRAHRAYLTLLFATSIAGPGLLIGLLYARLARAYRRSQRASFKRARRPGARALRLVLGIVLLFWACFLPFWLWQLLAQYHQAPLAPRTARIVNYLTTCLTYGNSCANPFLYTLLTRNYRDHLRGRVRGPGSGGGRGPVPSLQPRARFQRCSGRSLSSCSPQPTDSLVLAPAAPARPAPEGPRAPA

[2] = Dissociation constant of the compound; type: physicochemical
Urotensin-2 receptor [3] = biological target: T2, Urotensin-2 receptor (Rattus norvegicus, UniProt P49684); experiment: Potency against rat Urotensin 2 receptor
T2 sequence (P49684 whole entry): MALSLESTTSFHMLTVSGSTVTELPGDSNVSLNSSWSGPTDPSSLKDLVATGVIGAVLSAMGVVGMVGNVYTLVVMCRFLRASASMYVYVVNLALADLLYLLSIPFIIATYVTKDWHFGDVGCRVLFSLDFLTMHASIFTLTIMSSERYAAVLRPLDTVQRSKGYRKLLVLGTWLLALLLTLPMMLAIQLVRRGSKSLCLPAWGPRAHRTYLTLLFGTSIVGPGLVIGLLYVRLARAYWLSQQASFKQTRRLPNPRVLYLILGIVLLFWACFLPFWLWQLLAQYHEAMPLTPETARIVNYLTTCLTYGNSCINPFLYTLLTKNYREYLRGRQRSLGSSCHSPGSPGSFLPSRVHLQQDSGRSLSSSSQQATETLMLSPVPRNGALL

[4] = Lipophilicity of the compound; type: physicochemical; conditions: octanol/water

EC50 (Urotensin-2 receptor [1])	pKa [2]	EC50 (Urotensin-2 receptor [3])	logD [4]	SMILES
251 nM				CN(C)CCC1(c2ccc(Cl)cc2)Cc2ccccc2C(=O)O1 (single isomer, unassigned; (+))
316 nM	8.7	200 nM	2.1	CN(C)CCC1(c2ccc(Cl)cc2)Cc2ccccc2C(=O)O1 (stereo in doubt; 1)
